Data on twelve compounds can be found in patent US20020177592A1, “Combination of adrenergic agonist and tricyclo-alkylamine for relieving chronic pain without adverse side effects” (priority 1998, published 2002).

Read-outs that look alike come from different tables or passages of the source. Some results are limits rather than exact numbers.

The subject of data set [1] is NMDA receptors. The conditions noted are these: concentration giving complete protection of neurons against 200 μM NMA, cell culture; cited from earlier work.
Data set [2] concerns the target NMDA receptors. The settings on record: concentration suppressing MK-801 binding by 50%, cited from earlier work.
Data set [3] relates to rats with sciatic nerve ligation. The data set is described as follows: Sciatic nerve ligation model of neuropathic pain, paw lifting latency to thermal stimulus. In kind it is in vivo, rat. The source says: In all experiments, one hind limb of the rat has undergone a surgical operation in which a loop (“ligature”) of suture material was placed around the sciatic nerve and gently tightened. Over the course of several days, this caused chronic irritation to the nerve, driving it into a “hyper-sensitized” condition of the type which occurs in damaged neuronal circuits that cause neuropathic pain in humans.
After the nerve ligation operation, a waiting period of 8 days elapsed, to allow the ligated limb to reach a peak of hypersensitized chronic irritation of the ligated sciatic nerve. This sciatic nerve model was first described by Bennet and Xie 1988, and is widely regarded as a useful animal model for studying neuropathic pain.
To test the degree of sensitivity in the ligated limb vs. the unoperated limb, a beam of light (thermal stimulus) is applied to the soles (i.e., the undersurface area which is not covered by fur) of the hind paws, by shining a focused beam of light onto the sole, through the glass floor of a testing chamber. This beam was sufficiently hot to generate some discomfort, without posing any risk of burning the paw. The number of seconds that elapsed after commencement of the thermal stimulus, until the rat lifted up the paw, were detected electronically and recorded automatically.
Each limb is tested initially for thermal pain sensitivity, before the ligation operation is performed (pre-surgery), to ensure that both limbs had the same degree of pain sensitivity. After 8 days following surgery, each limb was tested again, before any treatment was given (pre-treatment), to ensure that the nerve ligature successfully provoked a hyper-irritable condition in the ligated limb. After drug treatment (at time=0, on the graphs), each limb was tested for thermal pain sensitivity at hourly intervals, for 4 hours.
The first set of in vivo tests involved sciatic nerve ligation in rats, using procedures described in Bennett and Xie, Pain 33: 87-107 (1988). This test involves surgically placing and tightening a loop of suture material around the sciatic nerve in one hind leg of a rat; the other hind leg serves as a control. Within about a week, the ligated sciatic nerve becomes irritated and reaches a hyper-responsive “kindled” state, where it will respond rapidly to even a mild stimulus that is not painful to an untampered leg. As such, it offers a model of what happens in pain pathways that have become pathologically hypersensitized in a human suffering from neuropathic pain.
In these tests, on the 8th day after surgery, the rat is placed in a testing device which electronically measures how quickly or slowly it acts, in lifting up a paw in response to a standardized mild warming (thermal) stimulus. The warming stimulus is generated by a light beam which shines onto the bottom surface of the paw, through the glass floor of the testing enclosure. The device is electronically controlled and automated, and measurements are made of the number of seconds that elapse after the light beam begins to shine on the bottom of the paw, until the rat lifts its paw.
To establish baseline values for pain sensitivity of each limb in each group of animals, each limb was tested initially for thermal pain sensitivity before the ligation operation was performed (pre-surgery). After 8 days, each limb was again tested before any drug treatment was administered (shown by the “pre-treatment” legend in all graphs). After drug administration, each limb was tested for thermal pain sensitivity at hourly intervals, for 4 hours.
Saline controls and all drugs were administered by intraperitoneal (IP) injection, i.e., hypodermic injection into the abdominal region. This is a convenient and reliable method of drug administration, for tests involving rats.
The test results are shown graphically in the Figures; each circle indicates the mean value, and the vertical bars show the standard error of the mean (SEM). […]

Data set [4] deals with rats. Nature of the data set: Sensorimotor battery (plank, walking initiation, platform, inclined screen, activity). The settings on record: treatment regimens that proved effective for relieving neuropathic pain; 1 hour post-treatment. In kind it is in vivo, rat. As to the method:
Testing was done at 1 hour post-treatment, which corresponded with the time of peak effect of drugs on paw withdrawal latency. Briefly, the sensorimotor battery consisted of five tests (Wozniak et al 1990) that are known to be able to detect significant muscle weakness, incoordination, somnolence, or other behavioral impairments.
For all of the tests in this sensorimotor battery, all treatment groups first received a habituation trial, to allow each rat to acclimate to the test situation. In all tests, protective padding was placed under any elevated apparatuses, to prevent pain or injury from falling. The tests performed were as follows:
A rat was timed for how long it could remain on a wooden plank that is 3 cm wide, elevated 61 cm above the floor.
Each rat was placed in the middle of a square outlined by white cloth tape (50×50 cm) on a smooth black surface of a large table top, and was timed for how long was required for the rat to leave the square (place all four paws outside the square).
Each rat was timed for how long it could remain perched on an elevated (61 cm above the floor) platform of small dimensions (7.6×15.2 cm).
Each rat was placed in the middle of an elevated (61 cm above the floor) wire mesh grid (8 squares per 10 cm) which was inclined at 60 degrees with the floor. […]

The subject of data set [5] is rats. The settings on record: from 0.5 hr after treatment for 1 hr.
Protocol: To address these issues, rats with sciatic nerve ligations, and rats with only sham sciatic nerve ligations, were treated with various doses of ethopropazine, clonidine, or the two agents together. They were then evaluated, using the following battery of sensorimotor and activity tests:
(5) One Hour Activity Level.
Locomotor activity was evaluated beginning at 0.5 hr following drug treatment, and lasting for 1 hr. In this test, the rat was placed in a cage equipped with three pairs of photoelectric cells, placed at regular intervals across the width of the cage, so that the animal's activity was monitored by automatically recording the number of “beam breaks” registered as the animal moved about the cage.
Data set [6] relates to NMDA receptors. The data set is described as follows: Protection of neurons in cell culture against 200 μM NMA (Olney et al 1987). The format is cell-based. The settings on record: ratio of protective concentrations. How it is done:
In Table 1, the “protective concentration” for each compound was the micromolar concentration of that compound which provided complete protection for neurons, in cell culture tests, against a 200 μM concentration of NMA (i.e., a racemic mixture of the D and L stereoisomers of N-methyl-aspartate; the D isomer, which makes up 50% of the racemic mixture, is highly toxic to neurons, while the L isomer is somewhat less toxic).

Where [7] appears, read: clonidine alone, IP, 0.075 mg/kg.

`OC(CCN1CCCCC1)(c1ccccc1)C1CC2C=CC1C2` (centres unmarked) [Biperiden]: the Protective concentration in the data set on NMDA receptors [1] was 200 µM.

Take `CN(C)CCCN1c2ccccc2Sc2ccc(Cl)cc21` [Chlorpromazine]: the IC50 on NMDA receptors [2] was 45.9 ± 11.5 µM.

With `CNCCCN1c2ccccc2CCc2ccccc21` [Desipramine], at NMDA receptors [2], the IC50 was 7.41 ± 1.32 µM.

For the compound `CN(C)CCOC(c1ccccc1)c1ccccc1` [Diphenhydramine], the Protective concentration in the data set with NMDA receptors [1] is 250 µM.

In the case of `CCN(CC)C(C)CN1c2ccccc2Sc2ccccc21` (centres unmarked) [Ethopropazine], the “paw lifting latency curves of ligated and control limbs” value in data set [3] (ethopropazine alone, FIGS. 2B and 2C (20 and 30 mg/kg), 2 and 3 hour testing times) is reported as “both curves rose, substantially”. Moreover, the “pain sensitivity (paw lifting latency)” value in data set [3] (ethopropazine alone, IP, 50 mg/kg, FIG. 2D) was “significantly changed the level of pain sensitivity in the ligated limb”; in data set [3] (ethopropazine alone, IP, 10 to 30 mg/kg, FIG. 2), “did not significantly change the pain sensitivity in either limb”. Besides, the Protective concentration with NMDA receptors [1] was 25 µM. Besides, in the data set on rats [4], the “performance on sensorimotor tests” value was “None of the ethopropazine or combined ethopropazine-plus-clonidine treatment regimens that proved effective for relieving neuropathic pain was associated with any impaired performance”. For the same compound, in the data set on rats [5] (ethopropazine alone, 50 mg/kg), the activity level entry was “significantly reduced activity level”.

Take `CNC1(c2ccccc2Cl)CCCCC1=O` (centres unmarked) [Ketamine]: in the data set on NMDA receptors [6], the “potency relative to ethopropazine (times more potent)” value was determined as 5 times and the “potency relative to procyclidine (times more potent)” value is listed as 3 times. Further, the Protective concentration in the data set on NMDA receptors [1] is 5 µM. The IC50 on NMDA receptors [2] (comparator in text) was 1.02 ± 0.33 µM.

As to `CNCCC=C1c2ccccc2CCc2ccccc21` [Nortriptyline], the IC50 on NMDA receptors [2] was 21 ± 0.67 µM.

On to `OC(CCN1CCCC1)(c1ccccc1)C1CCCCC1` (centres unmarked) [Procyclidine], for which the Protective concentration with NMDA receptors [1] is 15 µM.

In the case of `CN1[C@@H]2C[C@@H](OC(=O)[C@H](CO)c3ccccc3)C[C@H]1[C@@H]1O[C@@H]12` [Scopolamine], in the data set on NMDA receptors [1], the Protective concentration was more than 3000 µM.

With `OC(CCN1CCCCC1)(c1ccccc1)C1CCCCC1` (centres unmarked) [Trihexyphenidyl], the Protective concentration in the data set on NMDA receptors [1] is 125 µM.

`Clc1cccc(Cl)c1N=C1NCCN1` [clonidine]: the “relief of neuropathic pain” value in data set [3] (clonidine alone, IP, 0.025 mg/kg and 0.05 mg/kg) is “no significant relief of neuropathic pain”; in data set [3] (setting [7]) it was “significant and relatively sustained neuropathic pain relief”. Further, the sedation observed entry in data set [3] (setting [7]) is given as “significant sedation”. Further, the activity level entry in the data set on rats [5] (clonidine alone, 0.050 mg/kg) was “reduce activity levels, but only slightly and to a barely significant degree”; with rats [5] (clonidine alone, 0.075 mg/kg), “substantially reduced activity levels”.

On to `c1ccc(C2(N3CCCCC3)CCCCC2)cc1` [phencyclidine], for which, in the data set with NMDA receptors [6], the “potency relative to ethopropazine (times more potent)” value is 50 times and the “potency relative to procyclidine (times more potent)” value was found to be 30 times. Also, the Protective concentration with NMDA receptors [1] is 0.5 µM.
